In brackets after ≈: the same amount, converted by molar mass. Like-named read-outs stand apart in the source and are kept apart here.
How the values were obtained:
[1] = target: human histamine 4 receptor (hH4R) (Homo sapiens (Human), UniProt Q9H3N8); test: Binding affinity of human histamine 4 receptor (hH4R), [3H] labeled histamine displacement; details: hH4R-overexpressed cell membrane, [3H] histamine
How it was run: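 Membranes of hH4R-overexpressing cells (25 μg) incubated with compound and [3H]histamine (diluted to 1 μM before addition) for 30 min at 27° C. Non-specific binding defined with histamine (100 μM before addition); bound radioligand collected by filtration on PEI-presoaked glass fibre, washed with 50 mM Tris-HCl pH 7.4, counted by scintillation (CPM).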

[2] = target: human histamine 3 receptor (hH3R) (Homo sapiens (Human), UniProt Q9Y5N1); test: Binding affinity of human histamine 3 receptor (hH3R), [3H] labeled N-α-methylhistamine displacement; details: hH3R-overexpressed cell membrane, [3H] N-α-methylhistamine
Sequence of human histamine 3 receptor (hH3R) (Q9Y5N1 whole entry): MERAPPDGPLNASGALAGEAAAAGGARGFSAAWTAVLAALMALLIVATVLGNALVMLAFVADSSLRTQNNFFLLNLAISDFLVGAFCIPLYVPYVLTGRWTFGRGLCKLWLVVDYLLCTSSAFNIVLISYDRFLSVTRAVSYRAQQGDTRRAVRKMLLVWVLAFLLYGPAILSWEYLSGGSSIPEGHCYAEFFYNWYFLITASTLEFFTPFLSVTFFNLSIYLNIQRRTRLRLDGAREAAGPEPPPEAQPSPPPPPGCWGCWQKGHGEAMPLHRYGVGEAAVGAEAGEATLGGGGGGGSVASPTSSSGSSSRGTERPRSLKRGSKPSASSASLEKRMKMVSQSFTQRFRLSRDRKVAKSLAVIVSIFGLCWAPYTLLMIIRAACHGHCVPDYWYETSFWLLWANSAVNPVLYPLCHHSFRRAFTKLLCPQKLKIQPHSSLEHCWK
How it was run: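 Membranes from cells overexpressing hH3R (15 μg) were incubated with compound and [3H]N-α-methylhistamine (20 μM stock) in 50 mM Tris-HCl pH 7.4, 5 mM MgCl2 for 30 min at 27 °C. Bound radioligand was counted by scintillation after filtration; 200 μM (R)(−)-α-methylhistamine stock defined non-specific binding; IC50 derived.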

[3] = Solubility in artificial gastrointestinal tract solution; format: physicochemical; details: for solubility at 1 h / solubility at 2 h: artificial gastrointestinal tract solution, thermodynamic from solid; for solubility at 1 h: fassgf or other biorelevant; for solubility at 2 h: fassif
How it was run: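 Two media were used: pH 1.2 NaCl/HCl with Triton X-100, and pH 6.5 phosphate buffer with sodium taurocholate and lecithin. Heated sample solutions were filtered to remove undissolved compound, diluted 1:1 with CH3CN, and solubility was measured by liquid chromatography.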

[4] = Mouse pharmacokinetics (oral); format: in vivo; details: ICR mouse, 5 mg/mL solution at 10 mL/kg; for Cmax / AUC(0-inf) / half-life: plasma, 50 mg/kg; for AUC(0-inf): read-out: Mouse pharmacokinetics AUCinf; for half-life: read-out: Mouse pharmacokinetics t1/2 (converted)
Protocol: (§1) The weight of each ICR mouse and SD rat was properly 20˜30 g and 200˜300 g, and dosage of the compound of the present invention was 10 mL/kg for mice and 5 mL/kg for rats, and administered orally using Zonde. Blood collection was performed at 0.25, 0.5, 1, 2, 4, 6, 8 and 24 hours by orbital venous blood collection using a capillary tube coated with an anticoagulant, and then plasma was isolated using a centrifuge and kept in a freezer.
(§2) Plasma collected from animals and standard concentration material were pretreated using solid-phase extraction, and concentration of the compound of the invention was determined using a liquid chromatography mass spectrometer (Agilent HPLC, API-3000).
(§3) According to the resulting concentration value, the pharmacokinetics parameter was found using WinNonlin (Version 6.2) and half-life (t1/2), maximum blood concentration (Cmax) and infinite area under the curve (AUCinf) are shown in Tables 6 and 7 below.

[5] = Metabolic stability in mouse microsome; details: mouse microsome 1 mg/mL, 5 μM compound, 1 mM NADPH
[6] = Metabolic stability in human microsome; details: human microsome 1 mg/mL, 5 μM compound, 1 mM NADPH
[7] = test system: histamine-induced itching, ICR mice; test: Histamine-induced itching model in ICR mice; format: in vivo; details: 50 mg/kg oral, histamine 300 nmol intradermal, 20 min count
Protocol: Female, ICR mice (8 weeks old) were purchased from OrientBio Co., Ltd. The animals were housed under conditions of controlled temperature (23±3° C.), humidity (50±5%) and lighting with food and water available ad libitum.
The hair was clipped using clippers (8000AD, THRIVE) over the rostral part of the back 24 hours before the experiment under anesthesia with isoflurane. Histamine (300 nmol) was dissolved in saline and a volume of 40 μL injected intradermally into the rostral part of the back. Mice were dosed with either vehicle (20% cyclodextrin in second distilled water) or the compound by orally administration. The Compound (50 mg/kg) dissolved in a vehicle (20% cyclodextrin in second distilled water) and administered orally at a volume of 10 mL/kg.
Mice (n=10 per group) were divided into 3 groups (normal group, control group and experimental group). The animals were randomized for similar body weight distribution. A vehicle or the compound was administered 20 minutes before injection of histamine or saline. Immediately after intradermal injection, the animals were returned to an acrylic cage (approximately 30×30×30 cm, access production) composed of four cells, to which they had been acclimated for at least 1 hour before the experiment, for observation of itch responses. A camera (Samsung, VLUUNV30) was positioned above the mice to record their response. Itch was measured by blinded counting of the number of scratching in the 20 min period immediately after the intradermal injection. A number of scratching was defined as 3 or more individual rapid scratch movements with the hind paws around the injection site (J. Allergy Clin. Immunol. 2007, 19(1), 176-183). All data were analyzed by using Excel and Prism, and all values are expressed as the mean±S.E.M. The inhibitory effect of compounds is shown as a percentage of the maximal response to histamine (100% control group).
Statistical analysis was analyzed using one-way ANOVA with Dunnett test. Values of p<0.05 were considered statistically significant.

[8] = Rat pharmacokinetics (oral); format: in vivo; details: SD rat, 2 mg/mL solution at 5 mL/kg
Protocol: as §1, §2, §3

[9] = test system: histamine-induced mast cell migration (trachea); test: Histamine-induced mast cell migration; format: in vivo, Balb/c mice; details: 20 mg/kg oral, 0.1 M histamine aerosol, 2 days
Protocol: Female, Balb/c mice (7 weeks old, 20±3 g) were purchased from OrientBio Co., Ltd.
The animals were housed under conditions of controlled temperature (23±3° C.), humidity (50±5%) and lighting with food and water available ad libitum.
Mice were dosed with either vehicle (20% cyclodextrin in second distilled water) or the compound by orally administration. The Compound (20 mg/kg) dissolved in a vehicle and administered orally at a volume of 10 mL/kg. After 15 minutes, mice were challenged by a 20 min aerosol inhalation of PBS (phosphate buffered saline) or 0.1 M histamine (dissolving in PBS). This process was repeated for 2 days. After a final challenge, the tracheae were cleared of blood via perfusion of PBS and tracheae were extracted, the tracheae were fixed in 10% (w/v) formaldehyde for subsequent paraffin cross-sectioning and toluidine blue staining. Total mast cells were calculated, and a mean was reported. (The Journal of Pharmacology and Experimental Therapeutics, 2004, 309, 404-413). Statistical analysis was analyzed using one-way ANOVA with Dunnett test. Values of p<0.05 were considered statistically significant.

[10] = test system: oxazolone-induced atopic dermatitis, Balb/c mice; test: Oxazolone-induced atopic dermatitis model in Balb/c mice; format: in vivo; details: 100 mg/kg, BID, oral, days 8-28
Protocol: Female, Balb/c mice (6 weeks old, 20±3 g) were purchased from OrientBio Co., Ltd. The animals were housed under conditions of controlled temperature (23±3° C.), humidity (50±5%) and lighting with food and water available ad libitum.
On the beginning day (day 1), mice were sensitized by the topical application of 50 μL of 1% oxazolone in acetone and olive oil (4:1 ratio) on the abdominal skin. On day 8, 10, 12, 15, 17, 19, 22, 24 and 26, 25 μL of 0.2% oxazolone was applied topically on the inner side of right ear of each mouse. Between days 8 and 28, the compound of the invention was administered orally (10 mL/kg) twice a day in the morning and afternoon, and on days 12, 19 and 27, the thickness of the right ear of the mouse was measured. On day 28, the ear tissue of the mouse was extracted, fixed in 10% formalin solution, and then a tissue slide was prepared, stained with H&E (hematoxylin & eosin), and then the thickness of the ear was observed (Journal of Investigative Dermatology, 2008, 128, 79-86). Statistical analysis was analyzed using one-way ANOVA with Dunnett test. Values of p<0.05 were considered statistically significant.

[11] = target: human serotonin 3 receptor (human 5-HT3 receptor) (Homo sapiens (Human), UniProt P46098); test: Binding affinity of human serotonin 3 receptor (performed at Cerep); details: for inhibition at 10 µM: read-out: % inhibition degree at 10 μM, human serotonin 3 receptor (h5-HT3R); for IC50: read-out: Binding affinity (IC50) of human serotonin 3 receptor (h5-HT3R)
Sequence of human serotonin 3 receptor (human 5-HT3 receptor) (P46098 24-478): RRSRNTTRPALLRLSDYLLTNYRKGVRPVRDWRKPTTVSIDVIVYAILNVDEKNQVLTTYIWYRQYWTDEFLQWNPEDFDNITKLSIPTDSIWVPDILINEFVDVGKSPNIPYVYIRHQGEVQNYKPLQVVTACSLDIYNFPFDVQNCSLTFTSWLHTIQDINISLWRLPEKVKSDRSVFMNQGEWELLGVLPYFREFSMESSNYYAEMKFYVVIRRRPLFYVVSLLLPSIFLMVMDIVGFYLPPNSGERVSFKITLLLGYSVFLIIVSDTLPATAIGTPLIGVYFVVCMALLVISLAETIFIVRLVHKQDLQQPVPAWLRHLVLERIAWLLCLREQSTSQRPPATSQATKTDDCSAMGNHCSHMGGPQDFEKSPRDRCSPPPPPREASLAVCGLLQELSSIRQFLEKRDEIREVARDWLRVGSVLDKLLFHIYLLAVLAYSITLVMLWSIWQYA
Protocol: The binding assays of the human serotonin 3 receptor for present invention were performed at Cerep (Poitiers, France), and the results of analysis are shown in Table 3.

[12] = microsomes, 5 μM, pH 7.4
[13] = microsomes, 5 μM, pH 7.4; remark: listed apart in the source
[14] = first solution pH 1.2, 2 mg/mL sample, 37° C. 1 hour
[15] = second solution pH 6.5, 2 mg/mL sample, 37° C. 2 hours

Compound | IC50 [1] [µM] | IC50 [2] [µM] | solubility at 1 h [3, 14] [µg/mL] | solubility at 2 h [3, 15] [µg/mL] | Cmax [4] [ng/mL] | AUC(0-inf) [4] [ng·h/mL] | half-life [4] [h] | Metabolic stability (CLh. int), Mouse [5] [µL/min/mg] | Metabolic stability (CLh. int), Human [6] [µL/min/mg] | other results
Brc1cnc2nc(N3CCNCC3)c3nncn3c2c1 [Compound 16, 8-Bromo-4-(piperazin-1-yl)pyrido[2,3-e][1,2,4]triazolo[4,3-a]pyrazine] | 0.065 | > 100 | 1930 (≈ 5.78 mM) | 758 (≈ 2.27 mM) | 8270 | 15900 | 1.18 | 10420 | 4080 | –
Cc1nc2c3cc(Cl)cnc3nc(N3CCN(C)CC3)n2n1 [Compound 31, 9-Chloro-2-methyl-5-(4-methylpiperazin-1-yl)pyrido[3,2-e][1,2,4]triazolo[1,5-c]pyrimidine] | 0.016 | > 100 | 2010 (≈ 6.33 mM) | 1980 (≈ 6.23 mM) | 11700 | 22400 | 1.79 | 28630 | 5190 | Number of scratching (% changes from control group) [7]: 89.3^1%
CN1CCN(c2nc3ccc(Cl)cc3n3cnnc23)CC1 [reference compound] | 0.022 | 9 | – | – | – | – | – | 111630 | 10990 | Solubility, First solution (pH = 1.2) [3, 14]: 1708.3 μg/mL; Solubility, Second solution (pH = 6.5) [3, 15]: 320.1 μg/mL; Mouse pharmacokinetics AUCinf [4]: 6650 ng·h/mL; Mouse pharmacokinetics Cmax [4]: 3840 ng/mL; Mouse pharmacokinetics t1/2 [4]: 3.49 h; Rat pharmacokinetics AUCinf [8]: 1060 ng·h/mL; Rat pharmacokinetics Cmax [8]: 490 ng/mL; Rat pharmacokinetics t1/2 [8]: 1.09 h; Mast cell migration (% change from control group) [9]: 23.1^1%; Ear epidermis thickness (% change from control group) [10]: 8.0%
Clc1cnc2nc(N3CCN4CCCC4C3)c3nncn3c2c1 (stereo not shown) [Compound 29, 8-Chloro-4-(hexahydropyrrolo[1,2-a]pyrazin-2(1H)-yl)pyrido[2,3-e][1,2,4]triazolo[4,3-a]pyrazine] | 0.049 | – | 1560 (≈ 4.73 mM) | 1990 (≈ 6.04 mM) | – | – | – | – | – | Metabolic stability (CLh. int), Mouse [12]: 12070 µL/min/mg; Metabolic stability (CLh. int), Human [13]: 3950 µL/min/mg

The next lines start with results.

IC50 [1] [µM] | IC50 [2] [µM] | solubility at 1 h [3, 14] [µg/mL] | solubility at 2 h [3, 15] [µg/mL] | Cmax [4] [ng/mL] | AUC(0-inf) [4] [ng·h/mL] | half-life [4] [h] | Metabolic stability (CLh. int), Mouse [5] [µL/min/mg] | Metabolic stability (CLh. int), Human [6] [µL/min/mg] | Compound | other results
0.1 | > 100 | 1930 (≈ 6.87 mM) | 1380 (≈ 4.94 mM) | 9760 | 14000 | 1.17 | 4590 | 4160 | CNC1CN(c2nc3ncc(C#N)cc3n3cnnc23)C1 [Compound 25, 4-(3-(Methylamino)azetidin-1-yl)pyrido[2,3-e][1,2,4]triazolo[4,3-a]pyrazin-8-carbonitrile] | inhibition at 10 µM [11]: 0%; IC50 [11]: > 10 µM; Cmax ([8]; plasma, 10 mg/kg): 970 ng/mL; AUC(0-inf) ([8]; plasma, 10 mg/kg, read-out: Rat pharmacokinetics AUCinf): 2920 ng·h/mL; half-life ([8]; plasma, 10 mg/kg, read-out: Rat pharmacokinetics t1/2 (converted)): 2.21 h; Mast cell migration (% change from control group) [9]: 48.4^1%
0.073 | > 100 | 1350 (≈ 4.43 mM) | 1150 (≈ 3.79 mM) | 10100 | 74900 | 5.39 | 8390 | 1030 | Cc1nc2c3cc(Cl)cnc3nc(N3CCNCC3)n2n1 [Compound 32, 9-Chloro-2-methyl-5-(piperazin-1-yl)pyrido[3,2-e][1,2,4]triazolo[1,5-c]pyrimidine] | –
0.065 | > 100 | 1970 (≈ 6.78 mM) | 1310 (≈ 4.49 mM) | 10800 | 121000 | 15.6 | 9470 | 4480 | CNC1CN(c2nc3ncc(Cl)cc3n3nnnc23)C1 [Compound 93, 1-(8-Chloropyrido[2,3-e]tetrazolo[1,5-a]pyrazin-4-yl)-N-methylazetidin-3-amine] | inhibition at 10 µM [11]: 18%; IC50 [11]: > 10 µM

From patent publication US9586959B2, “Substituted tricyclic heterocycles as histamine 4 receptor inhibitors” (C&C RESEARCH LABORATORIES, priority 2011, dated 2017)
